From US8383637B2, “2-amino-quinazoline derivatives useful as inhibitors of β-secretase (BACE)” (Jansssen Pharmaceutica N.V., priority 2004, dated 2013)

Target: T1, β-secretase(BACE) (Homo sapiens, UniProt P56817)
T1 construct: purchased Panvera
Test: BACE FS1% Inhibition Assay
Assay type: biochemical
Conditions: FS1 substrate
Summary of the method: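 Human BACE (4 μg/mL working solution) preincubated 20 min at room temperature with compound, then FS1 substrate (300 μg/mL working solution) added and incubated 1 h at room temperature. Percent inhibition calculated at each compound concentration against blank and vehicle controls.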

T1 sequence (P56817 46-501): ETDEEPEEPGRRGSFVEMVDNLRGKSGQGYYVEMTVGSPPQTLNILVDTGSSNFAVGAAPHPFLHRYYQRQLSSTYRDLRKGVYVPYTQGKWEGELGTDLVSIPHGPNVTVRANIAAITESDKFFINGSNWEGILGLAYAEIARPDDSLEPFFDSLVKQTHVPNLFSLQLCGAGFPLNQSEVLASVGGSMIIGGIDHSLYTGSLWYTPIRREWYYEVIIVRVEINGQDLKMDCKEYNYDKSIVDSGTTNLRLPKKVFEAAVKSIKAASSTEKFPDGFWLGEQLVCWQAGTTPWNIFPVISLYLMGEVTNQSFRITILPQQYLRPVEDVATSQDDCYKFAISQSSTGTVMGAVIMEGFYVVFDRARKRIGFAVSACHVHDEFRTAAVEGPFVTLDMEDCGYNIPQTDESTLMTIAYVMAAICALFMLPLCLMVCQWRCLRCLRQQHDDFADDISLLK

| SMILES | % Inhibition (FS) 0.3 μM (0.3 μM test compound) | % Inhibition (FS) 1 μM (1 μM test compound) | % Inhibition (FS) 3 μM (3 μM test compound) | % Inhibition (FS) (0.3 μM test compound) | % Inhibition (FS) (1 μM test compound) | % Inhibition (FS) (3 μM test compound) |
| --- | --- | --- | --- | --- | --- | --- |
| NC1=Nc2ccc(-c3ccccc3Cl)cc2CN1CCNC(=O)C12CC3CC(CC(C3)C1)C2 [Compound 651] | <30% | 51% | 96% | – | – | – |
| CCCC(=O)NCCN1Cc2cc(-c3ccccc3Cl)ccc2N=C1N [Compound 652] | 31% | 63% | 91% | – | – | – |
| CC(C)(C)C(=O)NCCN1Cc2cc(-c3ccccc3Cl)ccc2N=C1N [Compound 653] | 46% | 82% | 101% | – | – | – |
| CCCCC(CC)C(=O)NCCN1Cc2cc(-c3ccccc3Cl)ccc2N=C1N (stereo not drawn) [Compound 655] | 45% | 79% | 104% | – | – | – |
| Cc1ccccc1-c1ccc2c(c1)CN(CCNC(=O)C1CCC1)C(N)=N2 [Compound 656] | 56% | 87% | 104% | – | – | – |
| Cc1ccccc1-c1ccc2c(c1)CN(CCNC(=O)C13CC4CC(CC(C4)C1)C3)C(N)=N2 [Compound 658] | <30% | 62% | 100% | – | – | – |
| CCCC(=O)NCCN1Cc2cc(-c3ccccc3C)ccc2N=C1N [Compound 659] | 43% | 69% | 100% | – | – | – |
| Cc1ccccc1-c1ccc2c(c1)CN(CCNC(=O)C(C)(C)C)C(N)=N2 [Compound 660] | 63% | 86% | 105% | – | – | – |
| Cc1ccccc1-c1ccc2c(c1)CN(CCNC(=O)CCC(C)C)C(N)=N2 [Compound 661] | – | – | – | 68% | 98% | 106% |
| CCCCC(CC)C(=O)NCCN1Cc2cc(-c3ccccc3C)ccc2N=C1N (stereo not drawn) [Compound 662] | – | – | – | 66% | 97% | 109% |
| NC1=Nc2ccc(-c3ccc4ccccc4c3)cc2CN1CCNC(=O)C1CCC1 [Compound 663] | – | – | – | <30% | <30% | <30% |
| NC1=Nc2ccc(-c3ccc4ccccc4c3)cc2CN1CCNC(=O)C1CCCC1 [Compound 664] | – | – | – | <30% | <30% | <30% |
| NC1=Nc2ccc(-c3ccc4ccccc4c3)cc2CN1CCNC(=O)C12CC3CC(CC(C3)C1)C2 [Compound 665] | – | – | – | 35% | <30% | <30% |
| CCCC(=O)NCCN1Cc2cc(-c3ccc4ccccc4c3)ccc2N=C1N [Compound 666] | – | – | – | 37% | <30% | <30% |
| CC(C)(C)C(=O)NCCN1Cc2cc(-c3ccc4ccccc4c3)ccc2N=C1N [Compound 667] | – | – | – | 33% | <30% | <30% |
| CC(C)CCC(=O)NCCN1Cc2cc(-c3ccc4ccccc4c3)ccc2N=C1N [Compound 668] | – | – | – | <30% | <30% | <30% |
| CCCCC(CC)C(=O)NCCN1Cc2cc(-c3ccc4ccccc4c3)ccc2N=C1N (stereo not drawn) [Compound 669] | – | – | – | <30% | <30% | 32% |
| NC1=Nc2ccc(-c3cnc4ccccc4c3)cc2CN1CCNC(=O)C1CCC1 [Compound 670] | – | – | – | <30% | <30% | 44% |
| NC1=Nc2ccc(-c3cnc4ccccc4c3)cc2CN1CCNC(=O)C1CCCC1 [Compound 671] | – | – | – | <30% | 30% | <30% |
| NC1=Nc2ccc(-c3cnc4ccccc4c3)cc2CN1CCNC(=O)C12CC3CC(CC(C3)C1)C2 [Compound 672] | – | – | – | <30% | <30% | <30% |
| CCCC(=O)NCCN1Cc2cc(-c3cnc4ccccc4c3)ccc2N=C1N [Compound 673] | – | – | – | 34% | <30% | <30% |
| CC(C)(C)C(=O)NCCN1Cc2cc(-c3cnc4ccccc4c3)ccc2N=C1N [Compound 674] | – | – | – | 36% | <30% | 41% |
| CC(C)CCC(=O)NCCN1Cc2cc(-c3cnc4ccccc4c3)ccc2N=C1N [Compound 675] | – | – | – | 35% | <30% | <30% |
| CCCCC(CC)C(=O)NCCN1Cc2cc(-c3cnc4ccccc4c3)ccc2N=C1N (stereo not drawn) [Compound 676] | – | – | – | 33% | <30% | 44% |
| Cc1ccccc1-c1ccc2c(c1)CN(CCNC(=O)CCC(F)(F)F)C(N)=N2 [Compound 678] | – | – | – | 51% | 88% | 99% |

| SMILES | % Inhibition (FS) 0.3 μM (0.3 μM test compound) | % Inhibition (FS) 1 μM (1 μM test compound) | % Inhibition (FS) 3 μM (3 μM test compound) | % Inhibition (FS) (0.3 μM test compound) | % Inhibition (FS) (1 μM test compound) | % Inhibition (FS) (3 μM test compound) |
| --- | --- | --- | --- | --- | --- | --- |
| Cc1ccccc1-c1ccc2c(c1)CN(CCNC(=O)CC(C)C(F)(F)F)C(N)=N2 (stereo not drawn) [Compound 679] | – | – | – | 78% | 99% | 103% |
| NC1=Nc2ccc(-c3ccccc3F)cc2CN1CCNC(=O)CCC(F)(F)F [Compound 680] | – | – | – | 42% | 75% | 90% |
| CC(CC(=O)NCCN1Cc2cc(-c3ccccc3F)ccc2N=C1N)C(F)(F)F (stereo not drawn) [Compound 681] | – | – | – | 67% | 100% | 103% |
| NC1=Nc2ccc(-c3ccccc3Cl)cc2CN1CCNC(=O)CCC(F)(F)F [Compound 682] | – | – | – | 39% | 77% | 97% |
| CC(CC(=O)NCCN1Cc2cc(-c3ccccc3Cl)ccc2N=C1N)C(F)(F)F (stereo not drawn) [Compound 683] | – | – | – | 64% | 86% | 102% |
| NC1=Nc2ccc(-c3ccccc3)cc2CN1CCNC(=O)CCC(F)(F)F [Compound 684] | – | – | – | 33% | 38% | 78% |
| CC(CC(=O)NCCN1Cc2cc(-c3ccccc3)ccc2N=C1N)C(F)(F)F (stereo not drawn) [Compound 685] | – | – | – | 50% | 90% | 101% |
| NC1=Nc2ccc(-c3ccc4ccccc4c3)cc2CN1CCNC(=O)CCC(F)(F)F [Compound 686] | – | – | – | <30% | 73% | 80% |
| NC1=Nc2ccc(-c3ccccc3F)cc2CN1CCNC(=O)C1CCOCC1 [Compound 687] | – | – | – | <30% | 50% | 87% |
| NC1=Nc2ccc(-c3ccccc3F)cc2CN1CCNC(=O)C1CCC(C(F)(F)F)CC1 (stereo not drawn) [Compound 688] | – | – | – | <30% | 36% | 81% |
| NC1=Nc2ccc(-c3ccccc3Cl)cc2CN1CCNC(=O)C1CCOCC1 [Compound 689] | – | – | – | 33% | 82% | 102% |
| NC1=Nc2ccc(-c3ccccc3Cl)cc2CN1CCNC(=O)C1CCC(C(F)(F)F)CC1 (stereo not drawn) [Compound 690] | – | – | – | <30% | <30% | 52% |
| CC(=O)N1CCC(C(=O)NCCN2Cc3cc(-c4ccccc4Cl)ccc3N=C2N)CC1 [Compound 691] | – | – | – | <30% | <30% | 51% |
| Cc1ccccc1-c1ccc2c(c1)CN(CCNC(=O)C1CCC(C(F)(F)F)CC1)C(N)=N2 (stereo not drawn) [Compound 694] | – | – | – | <30% | <30% | 84% |
| CC(=O)N1CCC(C(=O)NCCN2Cc3cc(-c4ccccc4C)ccc3N=C2N)CC1 [Compound 695] | – | – | – | <30% | <30% | 54% |
| COC1CCCC(C(=O)NCCN2Cc3cc(-c4ccccc4C)ccc3N=C2N)C1 (stereo not drawn) [Compound 696] | – | – | – | <30% | 72% | 104% |
| COc1ccccc1-c1ccc2c(c1)CN(CCNC(=O)C1CCOCC1)C(N)=N2 [Compound 697] | – | – | – | <30% | <30% | 63% |
| COc1ccccc1-c1ccc2c(c1)CN(CCNC(=O)C1CCC(C(F)(F)F)CC1)C(N)=N2 (stereo not drawn) [Compound 698] | – | – | – | <30% | <30% | 64% |
| COc1cccc(F)c1-c1ccc2c(c1)CN(CCNC(=O)C1CCOCC1)C(N)=N2 [Compound 699] | – | – | – | 31% | 64% | 93% |
| COc1cccc(F)c1-c1ccc2c(c1)CN(CCNC(=O)C1CCC(C(F)(F)F)CC1)C(N)=N2 (stereo not drawn) [Compound 700] | – | – | – | <30% | 36% | 85% |
| NC1=Nc2ccc(-c3ccccc3)cc2CN1CCNC(=O)C1CCC(C(F)(F)F)CC1 (stereo not drawn) [Compound 701] | – | – | – | <30% | <30% | 54% |
| CC(=O)N1CCC(C(=O)NCCN2Cc3cc(-c4ccccc4)ccc3N=C2N)CC1 [Compound 702] | – | – | – | <30% | <30% | <30% |
| COC1CCCC(C(=O)NCCN2Cc3cc(-c4ccccc4)ccc3N=C2N)C1 (stereo not drawn) [Compound 703] | – | – | – | <30% | 46% | 83% |
| NC1=Nc2ccc(C3=CCCCC3)cc2CN1CCNC(=O)C1CCC(C(F)(F)F)CC1 (stereo not drawn) [Compound 704] | – | – | – | <30% | <30% | <30% |
| CC(=O)N1CCC(C(=O)NCCN2Cc3cc(C4=CCCCC4)ccc3N=C2N)CC1 [Compound 705] | – | – | – | <30% | <30% | <30% |
